Measured values: ChEMBL document CHEMBL4266006, “Synthesis and Evaluation of Aryl Quinolines as HIV-1 Integrase Multimerization Inhibitors” (ACS Med Chem Lett, 2018)

Molecular target: Human immunodeficiency virus type 1 integrase (Human immunodeficiency virus 1, UniProt Q7ZJM1)
Assay: Inhibition of N-terminal His/flag-tagged HIV1 integrase expressed in Escherichia coli BL21 (DE3) incubated for 2.5 hrs by HTRF assay; call rule not given here

Chain of Human immunodeficiency virus type 1 integrase (Q7ZJM1 whole entry): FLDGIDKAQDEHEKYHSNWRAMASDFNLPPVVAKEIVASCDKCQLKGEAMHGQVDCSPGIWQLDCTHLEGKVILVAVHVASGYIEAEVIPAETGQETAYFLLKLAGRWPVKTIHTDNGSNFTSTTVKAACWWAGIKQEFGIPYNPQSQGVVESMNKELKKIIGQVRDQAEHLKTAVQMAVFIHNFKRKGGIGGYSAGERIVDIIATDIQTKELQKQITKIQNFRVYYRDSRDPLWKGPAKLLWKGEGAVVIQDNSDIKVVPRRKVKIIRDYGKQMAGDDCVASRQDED

EC50 (read-out: EC50) | EC50 | SMILES
1320 nM |  | Cc1nc2ccccc2c(-c2ccccc2)c1C(OC(C)(C)C)C(=O)O (configuration not stated)
4510 nM |  | CSc1ccccc1-c1c(C(OC(C)(C)C)C(=O)O)c(C)nc2ccccc12 (configuration not stated)
2970 nM |  | Cc1nc2ccccc2c(-c2ccc(C#N)cc2)c1C(OC(C)(C)C)C(=O)O (configuration not stated)
240 nM |  | Cc1ccc(-c2c(C(OC(C)(C)C)C(=O)O)c(C)nc3ccccc23)cc1 (configuration not stated)
 | Not Active | Cc1nc2ccccc2c(-c2cncnc2)c1C(OC(C)(C)C)C(=O)O (configuration not stated)
720 nM |  | Cc1nc2ccccc2c(-c2ccc(C(F)(F)F)cc2)c1C(OC(C)(C)C)C(=O)O (configuration not stated)
70 nM |  | Cc1nc2ccc(Br)cc2c(-c2ccc(Cl)cc2)c1C(OC(C)(C)C)C(=O)O (configuration not stated)
8410 nM |  | CC(=O)Nc1ccc(-c2c(C(OC(C)(C)C)C(=O)O)c(C)nc3ccccc23)cc1 (configuration not stated)
 | Not Active | Cc1nc2ccccc2c(-c2ccc(-c3ccccc3)cc2)c1C(OC(C)(C)C)C(=O)O (configuration not stated)
3790 nM |  | Cc1nc2ccccc2c(-c2cccc(Cl)c2)c1C(OC(C)(C)C)C(=O)O (configuration not stated)
3700 nM |  | COc1ccc(-c2c(C(OC(C)(C)C)C(=O)O)c(C)nc3ccccc23)cc1OC (configuration not stated)
 | Not Active | Cc1nc2ccccc2c(-c2cccc(C#N)c2)c1C(OC(C)(C)C)C(=O)O (configuration not stated)
510 nM |  | Cc1ccccc1-c1c(C(OC(C)(C)C)C(=O)O)c(C)nc2ccccc12 (configuration not stated)
2210 nM |  | Cc1nc2ccccc2c(-c2ccoc2)c1C(OC(C)(C)C)C(=O)O (configuration not stated)
1380 nM |  | COc1cccc(-c2c(C(OC(C)(C)C)C(=O)O)c(C)nc3ccccc23)c1 (configuration not stated)
8390 nM |  | COc1ccccc1-c1c(C(OC(C)(C)C)C(=O)O)c(C)nc2ccccc12 (configuration not stated)

EC50 (read-out: EC50) | EC50 | SMILES
490 nM |  | CSc1ccc(-c2c(C(OC(C)(C)C)C(=O)O)c(C)nc3ccccc23)cc1 (configuration not stated)
490 nM |  | Cc1nc2ccccc2c(-c2ccc(F)cc2)c1C(OC(C)(C)C)C(=O)O (configuration not stated)
 | Not Active | Cc1nc2ccccc2c(-c2cccs2)c1C(OC(C)(C)C)C(=O)O (configuration not stated)
1390 nM |  | CC(=O)c1ccc(-c2c(C(OC(C)(C)C)C(=O)O)c(C)nc3ccccc23)cc1 (configuration not stated)
100 nM |  | Cc1nc2ccccc2c(-c2ccc(Cl)cc2)c1C(OC(C)(C)C)C(=O)O (configuration not stated)
11100 nM |  | Cc1nc2ccccc2c(-c2ccccc2C#N)c1C(OC(C)(C)C)C(=O)O (configuration not stated)
950 nM |  | Cc1cccc(-c2c(C(OC(C)(C)C)C(=O)O)c(C)nc3ccccc23)c1 (configuration not stated)
27 nM |  | Cc1nc2ccccc2c(-c2ccc3c(c2)CCCO3)c1C(OC(C)(C)C)C(=O)O (configuration not stated)
260 nM |  | Cc1nc2ccccc2c(-c2ccccc2Cl)c1C(OC(C)(C)C)C(=O)O (configuration not stated)
 | Not Active | Cc1nc2ccccc2c(-c2ccc3c(c2)c2ccccc2n3-c2ccccc2)c1C(OC(C)(C)C)C(=O)O (configuration not stated)
230 nM |  | COc1ccc(-c2c(C(OC(C)(C)C)C(=O)O)c(C)nc3ccccc23)cc1 (configuration not stated)
80 nM |  | Cc1nc2ccccc2c(-c2ccc3c(c2)OCCO3)c1C(OC(C)(C)C)C(=O)O (configuration not stated)
2110 nM |  | Cc1nc2ccccc2c(-c2cccc(F)c2)c1C(OC(C)(C)C)C(=O)O (configuration not stated)
1000 nM |  | CSc1cccc(-c2c(C(OC(C)(C)C)C(=O)O)c(C)nc3ccccc23)c1 (configuration not stated)
350 nM |  | Cc1nc2ccccc2c(-c2ccc(OC(F)(F)F)cc2)c1C(OC(C)(C)C)C(=O)O (configuration not stated)
580 nM |  | Cc1nc2ccccc2c(-c2ccccc2F)c1C(OC(C)(C)C)C(=O)O (configuration not stated)
